Several values for one entry are separate records, joined by “and”; a condition that tells them apart may be missing. Equal entries are not always repeated. Marks after values point to notes of the source that are not given here.
Experiments:
[1] = Voluntary discontinuation of Accolate after capsulectomy and implant replacement; type: in vivo; details: group of 279 patients
Method: (§1) Patients were treated with Accolate 20 mg twice daily, beginning the day after surgery. Patients with a history of hepatitis or liver disease were excluded. Patient compliance with the recommended dosage was encouraged, but patients were advised that they could discontinue the medication at any time that they experienced significant side effects. All patients receiving Accolate therapy underwent liver function studies 4 weeks after the initiation of Accolate therapy. […] Follow-up liver function studies were performed at 2-week intervals, until transaminases normalized. […] Liver function studies were repeated after 3 months of Accolate therapy for patients choosing to continue Accolate for a 6-month course.
A total of 447 consecutive patients were evaluated during the study period. A first group of 168 consecutive patients with encapsulated breast implants were studied and no leukotriene inhibitor therapy was offered postoperatively. This included 55 patients with bilateral capsular contracture. […] A second group of 279 consecutive patients with encapsulated breast implants were studied and treated with Accolate, including 87 patients with bilateral capsular contracture. There were 366 breasts with capsular contracture among patients in this group. […] Twelve patients discontinued the use of Accolate voluntarily based on cost or minor side effects and were excluded from the study.

[2] = test system: capsular contracture in patients undergoing capsulectomy and silicone implant replacement; experiment: Recurrence of capsular contracture (Baker scale) at one year after capsulectomy and silicone implant replacement; type: in vivo
Method: The study was performed with patients undergoing primary capsulectomy and silicone implant replacement for grade III and IV capsular contracture according to the methods depicted in FIGS. 3 and 4 of the present disclosure. […] Patients with a history of subglandular breast augmentation or those who underwent concurrent mastopexy revision or replacement with textured silicone breast implants were not included in the study. Enrolled patients underwent surgery with either an inframammary or periareolar incision.
One group of patients underwent capsulectomy and implant replacement without the use of leukotriene inhibitors. Another group of patients agreed to the off-label use of zafirlukast (Accolate; AstraZeneca Pharmaceuticals, Wilmington, Del.) and were treated beginning the day following the capsulectomy and implant replacement procedure. All patients were between the ages of 22 and 60 years of age and consented to the use of Mentor Memory Gel silicone gel breast implants with a smooth surface (Mentor Worldwide, Irvine, Calif.) and the off-label use of triple-antibiotic irrigation containing povidone-iodine (Betadine; Purdue Frederick Co., Norwalk, Conn.). In addition, a detailed informed consent was provided for the off-label use of Accolate. All patients were adequately informed of the risks, potential unknown benefits, cost, and potential side effects of leukotriene therapy with both verbal and written consent. Patients were informed that taking Accolate was voluntary and that they could discontinue this medication at any time for any reason.
Patients undergoing capsulectory and re-augmentation were treated with the incision initially used by the original surgeon, with either an inframmary or periareolar approach. All patients were surgically treated with complete periprosthetic capsulectomy. Patients were also treated with preoperative intravenous antibiotics, either a 1-g dose of cephazolin or 600 mg of clindamycin, selected based on allergy profiles. Before insertion of implants, triple-antibiotic irrigation [50,000 U of bacitracin, 1 g of Ancef (GlaxoSmithKline, Middlesex, United Kingdom), and 80 mg of gentamicin] with the addition of 50 ml of povidone-iodine in 500 ml of normal saline was used.
Hemovac ⅛ inch drains (Medline Industries, Rialto, Calif.) were used on all breasts receiving capsulectomy. All implants were placed with powder-free glove changes and inserted through a skin barrier/nipple shield using Tegaderm (3M, St. Paul, Minn.) dressings. Drains were left in place until drainage from one breast reached 30 ml/24 hrs, or 60 ml/24 hrs if both breasts were treated. The implant displacement therapy protocol was initiated two days after drains were removed.
as §1
All patients were evaluated at frequent follow-up appointments, including early postoperative visits, 1 month, 3 months, 6 months, and 1 year postoperatively. Capsular contracture was evaluated by the Baker scale. Patients with grade III or IV capsular contractures were considered as having clinical capsular contracture. Each patient was considered based on the number of their breasts associated with clinical capsular contracture ranging from none to two breasts. […]

[3] = test system: capsular contracture in patients undergoing primary silicone gel breast augmentation; experiment: Capsular contracture (Baker scale) at one year after primary silicone gel breast augmentation, retrospective review; type: in vivo, patients (women); details: for % of Patients with Capsular Contracture: one year following primary silicone gel breast augmentation, Baker grade III or IV, three months therapy plus implant displacement protocol
Method: The study was performed with a retrospective review of 1122 consecutive women undergoing primary, silicone gel breast augmentation. Over time, the author added leukotriene inhibitor therapy to the postoperative treatment of patients. The first group of patients were treated without leukotriene therapy. Consecutive patients agreeing to the off-label use of leukotriene inhibitors were then studied. The second group of consecutive patients was offered Singulair therapy postoperatively while all other aspects of the surgical technique and care remained the same. Finally, the author offered Accolate therapy to the final group of patients undergoing breast augmentation.
Patients chose augmentation with either a periareolar or inframammary approach. Silicone breast augmentation procedures were performed using a standardized, dual plane technique. All patients were treated with preoperative intravenous antibiotics, either a one-gram dose of cephazolin or 600 mg of clindamycin, selected based on allergy profiles. Prior to insertion of implants, triple-antibioic irrigation (50,000 U bacitracin, 1 g Ancef, 80 mg gentamicin) with the addition of 50 ml of povidone-iodine in 500 ml of normal saline was utilized. All implants were placed with power-free glove changes, and inserted through a skin barrier/nipple shield using Tegaderm dressings. The implant displacement therapy protocol was initiated on post-operative day two.
(§2) Patients that were administered Singulair were treated according to the method described in FIGS. 1 and 2 of the present disclosure. First, patients were evaluated clinically to see if they were a candidate for breast augmentation with physical examination and medical history. The medical history review included discussion and review of liver health, current medications, and potential contraindications or drug interactions with leukotriene inhibitors. Patients were then provided an informed consent for the use of Singulair, 10 mg daily. The informed consent reviewed the potential benefits and risks of this medication which is taken as an off-label indication. Breast augmentation was performed with either smooth or textured silicone or saline implants. On the day following surgery, Singulair therapy is initiated, 10 mg QD. In the first week following surgery, the implant displacement therapy protocol was begun for patients with smooth surface silicone implants. The implant displacement therapy protocol may also be performed, if indicated, for patients with mildly textured breast implants, but not with moderately textured or highly textured devices. Monitoring for side effects from Singulair was conducted by educating patients as to the common side effects and discussing with patients noted side effects. Singulair can be discontinued if the side effects are significant. At thirty days postoperatively, the softness of the breast implants as well as the implant movement and position was evaluated to determine if capsular contracture was present. Two more months of Singulair was prescribed. Following three total months of therapy, the breasts were evaluated for the presence of capsular contracture. Patients without clinical capsular contracture, Baker I and II, were completed with therapy. Patients with clinical capsular contracture, either Baker III or IV, were treated with an additional three months of Singulair therapy as prescribed with the continuation of implant displacement therapy protocol. If patients declined to take Singulair or had side effects from the medication, implant displacement therapy protocol was continued and patients were offered 800 units-1000 units of Vitamin E daily in lieu of Singulair.
Patients that were administered Accolate were treated according to the method described in FIGS. 1 and 2 of the present disclosure. First, patients were evaluated clinically to see if they were a candidate for breast augmentation with physical examination and medical history. […]

[4] = Liver function studies (transaminases) during Accolate therapy after primary augmentation; type: in vivo, patients (women)
Method: At thirty days postoperatively, blood testing was performed, with a measurement of transaminase levels and liver function studies. The softness of the breast implants as well as the implant movement and position was evaluated to determine if capsular contracture was present. Patients with normal liver function studies were provided two more months of Accolate therapy. At the completion of this, two additional months of treatment, the breasts were evaluated for the presence of capsular contracture. Patients without clinical capsular contracture, Baker I and II, were completed with therapy. Patients with clinical capsular contracture, either Baker III or IV, underwent repeat liver function studies. If transaminase levels were within normal limits, an additional three months of Accolate therapy was prescribed with the continuation of breast implant displacement therapy.
If liver function studies were abnormal and transaminase levels were elevated at any time in the treatment period, Accolate therapy was immediately discontinued and repeat liver function studies were performed every 14 days until normal levels were reached. If applicable, breast implant displacement therapy was continued and patients were offered 800 units-1000 units of Vitamin E daily in lieu of Accolate. Patients undergoing treatment with Accolate were monitored with a blood testing program. Following thirty days of treatment with Accolate, patients underwent liver function studies with evaluation of transaminase enzymes, including SGOT and SGPT, or ALT and AST. Normal ranges of enzyme levels were required to continue Accolate therapy.
All patients receiving Accolate therapy underwent liver function studies four weeks following the initiation of Accolate therapy. […] Follow-up liver function studies were performed at two week intervals, until transaminases normalized. […] Liver function studies were repeated after three months of Accolate therapy for patients choosing to continue Accolate for a six month course.

[5] = FDA post-approval studies for the treatment of asthma; cited from earlier work
[6] = Side effects and discontinuation reported by patients taking leukotriene inhibitors after primary augmentation; type: in vivo, patients (women); details: for Percentage of patients discontinuing the medication because of (minor) side effects or cost: female, 3 months
Method: as §2
Patients that were administered Accolate were treated according to the method described in FIGS. 1 and 2 of the present disclosure. First, patients were evaluated clinically to see if they were a candidate for breast augmentation with physical examination and medical history. The medical history review included discussion and review of liver health, current medications, and potential contraindications or drug interactions with leukotriene inhibitors. Patients were then provided an informed consent for the use of Accolate (Zafirlukast), 20 mg twice daily. Patients were counseled to take the medication at least one hour before meals. The informed consent reviews the potential benefits and risks of this medication which is taken as an off-label indication. Breast augmentation was performed with either smooth or textured silicone or saline implants. On the day following surgery, Accolate therapy was initiated, 20 mg BID. In the first week following surgery, the implant displacement therapy protocol was begun for patients with smooth surface silicone implants. The implant displacement therapy protocol may also be performed, if indicated, for patients with mildly textured breast implants, but not with moderately textured or highly textured devices. […]

[7] = Liver function studies (transaminases) during Accolate therapy after capsulectomy and implant replacement; type: in vivo; details: at one month postoperatively; group of 279 patients, 20 mg twice daily
Method: as §1

[8] = preoperative Grade III (172 breasts)
[9] = preoperative Grade IV (194 breasts)
[10] = preoperative Total III/IV (366 breasts)
[11] = one year following silicone gel breast augmentation
[12] = one year following silicone gel breast augmentation, patients with contracture/patients followed

COc1cc(C(=O)NS(=O)(=O)c2ccccc2C)ccc1Cc1cn(C)c2ccc(NC(=O)OC3CCCC3)cc12 [Accolate, Zafirlukast]
Number of patients who discontinued voluntarily based on cost or minor side effects [1]: Twelve | Number of breasts with capsular contracture, postoperative Grade III [2, 8]: 7 | Number of breasts with capsular contracture, postoperative Grade IV [2, 8]: 2 | Number of breasts with capsular contracture, postoperative Total [2, 8]: 9 | Percent of breasts with capsular contracture, postoperative Grade III [2, 8]: 4.1% | Percent of breasts with capsular contracture, postoperative Grade IV [2, 8]: 1.2% | Percent of breasts with capsular contracture, postoperative Total [2, 8]: 5.3% | Number of breasts with capsular contracture, postoperative Grade III [2, 9]: 15 | Number of breasts with capsular contracture, postoperative Grade IV [2, 9]: 5 | Number of breasts with capsular contracture, postoperative Total [2, 9]: 20 | Percent of breasts with capsular contracture, postoperative Grade III [2, 9]: 7.8% | Percent of breasts with capsular contracture, postoperative Grade IV [2, 9]: 2.6% | Percent of breasts with capsular contracture, postoperative Total [2, 9]: 10.3% | Number of breasts with capsular contracture, postoperative Grade III [2, 10]: 22 | Number of breasts with capsular contracture, postoperative Grade IV [2, 10]: 7 | Number of breasts with capsular contracture, postoperative Total [2, 10]: 29 | Percent of breasts with capsular contracture, postoperative Grade III [2, 10]: 6.0% | Percent of breasts with capsular contracture, postoperative Grade IV [2, 10]: 1.9% | Percent of breasts with capsular contracture, postoperative Total [2, 10]: 7.9% | Reduction of the encapsulation risk ([3]; addition of the drug in the first three months following augmentation, versus no leukotriene inhibitor): over 50% | % of Patients with Capsular Contracture [3]: 2.19%* | Percentage of patients demonstrating capsular contracture, inframammary incision [3, 11]: 1.74% | Percentage of patients demonstrating capsular contracture, periareolar incision [3, 11]: 2.31% and 2.38% | Percentage of patients demonstrating capsular contracture, total (both incisions) [3, 11]: 2.19% | Number of patients demonstrating capsular contracture, inframammary incision [3, 12]: 2/115 | Number of patients demonstrating capsular contracture, total (both incisions) [3, 12]: 8/375 | Number of patients with grade III/IV capsular contracture at three months that improved to grade II with an additional three months of therapy ([3]; primary augmentation, six months of therapy in total): five | Capsular contracture rate compared with patients not treated with leukotriene inhibitors ([3]; three months of therapy after primary augmentation, result in words): significantly lower | Percentage of patients with (mild) elevation of transaminases ([4]; at 30 days of treatment, 20 mg bid, medication discontinued): 0.58% | Number of patients with (mild) elevation of transaminases ([4]; at 30 days of treatment, out of 520 treated): Three and 3/520 | Time for transaminases to return to normal after discontinuing the medication ([4]; two patients within two weeks, one patient within four weeks): four | Potential significant (uncommon) risks reported [5]: chemical hepatitis, liver failure, and even death | Percentage of patients discontinuing the medication because of (minor) side effects or cost ([6]; human, in vivo): 6.2% | Irreversible side effects noted in the study ([6]; human, in vivo): no irreversible side effects | Patients who tolerated the medication well ([6]; primary augmentation study): ~95% | Number of patients with (mild) elevation of transaminases [7]: Two

CC(C)(O)c1ccccc1CC[C@@H](SCC1(CC(=O)O)CC1)c1cccc(/C=C/c2ccc3ccc(Cl)cc3n2)c1 [Singulair, Montelukast]
% of Patients with Capsular Contracture [3]: 3.27% | Percentage of patients demonstrating capsular contracture, inframammary incision [3, 11]: 2.08% | Percentage of patients demonstrating capsular contracture, periareolar incision [3, 11]: 3.81% | Percentage of patients demonstrating capsular contracture, total (both incisions) [3, 11]: 3.27% | Percentage of patients discontinuing the medication because of (minor) side effects or cost ([6]; human, in vivo): 2.5% | Common side effects reported by patients ([6]; human, in vivo): headache, GI symptoms, fatigue, rash
